Measured values reported in patent US20230085307A1, “PYRIDAZINONE COMPOUND AND HERBICIDE” (NISSAN CHEMICAL CORPORATION, priority 2019, published 2023).

How the values were obtained:
late watergrass [1] = experiment: Test Example 1: herbicidal activity, application before weed generation under submerged conditions (Table 16, symbol A); format: in vivo, late watergrass (Echinochloa oryzicola); conditions: amount of applied herbicide 320 g/ha
Outline: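 Alluvial soil was flooded to 4 cm depth, weed seeds were sown mixed and 2.5-leaf rice seedlings were transplanted. On sowing day, the compound's emulsion, diluted in water to a set dose, was applied to the water surface. Plants grew at 25–30 °C and were scored 0–5 after three weeks.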

late watergrass [2] = experiment: Test Example 2: herbicidal activity, application during weed generation under submerged conditions (Table 17, symbol A); format: in vivo, late watergrass (Echinochloa oryzicola); conditions: AAH 320 g/ha; application during weed generation, submerged conditions
Outline: (§1)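 Wagner pot, alluvial soil, 4 cm flood; mixed sowing of all species; greenhouse 25° C.–30° C. Emulsifiable formulation, water-diluted to predetermined dose, applied to paddy water at 1–2 leaf stage. Effect rated at 3 wk using the earlier test's scoring criteria.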

Japanese bulrush = experiment: Test Example 2: herbicidal activity, application during weed generation under submerged conditions (Table 17, symbol B); format: in vivo, Japanese bulrush (Schoenoplectus juncoides); conditions: AAH 320 g/ha; application during weed generation, submerged conditions
Outline: as §1

oval-leafed pondweed = experiment: Test Example 2: herbicidal activity, application during weed generation under submerged conditions (Table 17, symbol C); format: in vivo, oval-leafed pondweed (Monochoria vaginalis); conditions: AAH 320 g/ha; application during weed generation, submerged conditions
Outline: as §1

wild oat = experiment: Test Example 4: herbicidal effect by soil treatment (Table 19, symbol I); format: in vivo, wild oat (Avena fatua); conditions: amount of applied herbicide 320 g/ha
Outline: (§2)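 Herbicidal effect was rated 3 weeks after treatment, using the scoring criteria of an earlier test. The compound, formulated as an emulsion and diluted in water to a set herbicide amount, had been sprayed uniformly on soil over freshly sown seeds. Growth took place in a greenhouse at 25° C. to 30° C.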

blackgrass [3] = experiment: Test Example 4: herbicidal effect by soil treatment (Table 19, symbol J); format: in vivo, blackgrass (Alopecurus myosuroides); conditions: amount of applied herbicide 320 g/ha
Outline: as §2

Italian ryegrass [4] = experiment: Test Example 4: herbicidal effect by soil treatment (Table 19, symbol K); format: in vivo, Italian ryegrass (Lolium multiflorum); conditions: amount of applied herbicide 320 g/ha
Outline: as §2

lambsquarters = experiment: Test Example 4: herbicidal effect by soil treatment (Table 19, symbol O); format: in vivo, lambsquarters (Chenopodium album); conditions: amount of applied herbicide 320 g/ha
Outline: as §2

chickweed [5] = experiment: Test Example 4: herbicidal effect by soil treatment (Table 19, symbol P); format: in vivo, common chickweed (Stellaria media); conditions: amount of applied herbicide 320 g/ha
Outline: as §2

persian speedwell = experiment: Test Example 4: herbicidal effect by soil treatment (Table 19, symbol R); format: in vivo, Persian speedwell (Veronica persica); conditions: amount of applied herbicide 320 g/ha
Outline: as §2

southern crabgrass = experiment: Test Example 5: herbicidal effect by foliage application, plastic box (Table 20, symbol F); format: in vivo, southern crabgrass (Digitaria ciliaris); conditions: foliage application, 320 g/ha, three weeks after application
Outline: (§3)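 Foliar spray test: emulsion formulation diluted in water to a set application rate, sprayed onto 14-day-old plants raised in diluvial soil at 25° C to 30° C under glass. Both herbicidal effect and crop effect rated visually three weeks later.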

blackgrass [6] = experiment: Test Example 5: herbicidal effect by foliage application, plastic box (Table 20, symbol J); format: in vivo, blackgrass (Alopecurus myosuroides); conditions: foliage application, 320 g/ha, three weeks after application
Outline: as §3

Italian ryegrass [7] = experiment: Test Example 5: herbicidal effect by foliage application, plastic box (Table 20, symbol K); format: in vivo, Italian ryegrass (Lolium multiflorum); conditions: foliage application, 320 g/ha, three weeks after application
Outline: as §3

velvetleaf = experiment: Test Example 5: herbicidal effect by foliage application, plastic box (Table 20, symbol M); format: in vivo, velvetleaf (Abutilon theophrasti); conditions: foliage application, 320 g/ha, three weeks after application
Outline: as §3

redroot pigweed = experiment: Test Example 5: herbicidal effect by foliage application, plastic box (Table 20, symbol N); format: in vivo, redroot pigweed (Amaranthus retroflexus); conditions: foliage application, 320 g/ha, three weeks after application
Outline: as §3

chickweed [8] = experiment: Test Example 5: herbicidal effect by foliage application, plastic box (Table 20, symbol P); format: in vivo, common chickweed (Stellaria media); conditions: foliage application, 320 g/ha, three weeks after application
Outline: as §3

Compound | Herbicidal effect, A: late watergrass (late watergrass [1]) | herbicidal effect rating, A: late watergrass (late watergrass [2]) | herbicidal effect rating, B: Japanese bulrush (Japanese bulrush) | herbicidal effect rating, C: oval-leafed pondweed (oval-leafed pondweed) | I: wild oat, herbicidal effect grade (wild oat) | J: blackgrass, herbicidal effect grade (blackgrass [3]) | K: Italian ryegrass, herbicidal effect grade (Italian ryegrass [4]) | O: lambsquarters, herbicidal effect grade (lambsquarters) | P: chickweed, herbicidal effect grade (chickweed [5]) | R: persian speedwell, herbicidal effect grade (persian speedwell) | F: southern crabgrass, herbicidal effect grade (southern crabgrass) | J: blackgrass, herbicidal effect grade (blackgrass [6]) | K: Italian ryegrass, herbicidal effect grade (Italian ryegrass [7]) | M: velvetleaf, herbicidal effect grade (velvetleaf) | N: redroot pigweed, herbicidal effect grade (redroot pigweed) | P: chickweed, herbicidal effect grade (chickweed [8])
CCCCCOc1ccc2c(-c3c(O)c(C)nn(C)c3=O)c(-c3ccccc3OC)sc2c1 [3-108] | 3 (Herbicidal rate of 40% or more and less than 70%) | 2 (Herbicidal rate of 20% or more and less than 40%) | 2 (Herbicidal rate of 20% or more and less than 40%) | 0 (Herbicidal rate of 5% or less (almost no effect)) | 0 (Herbicidal rate of 5% or less (almost no effect)) | 0 (Herbicidal rate of 5% or less (almost no effect)) | 0 (Herbicidal rate of 5% or less (almost no effect)) | 4 (Herbicidal rate of 70% or more and less than 90%) | 0 (Herbicidal rate of 5% or less (almost no effect)) | 0 (Herbicidal rate of 5% or less (almost no effect)) | 0 (Herbicidal rate of 5% or less (almost no effect)) | 0 (Herbicidal rate of 5% or less (almost no effect)) | 0 (Herbicidal rate of 5% or less (almost no effect)) | 2 (Herbicidal rate of 20% or more and less than 40%) | 5 (Herbicidal rate of 90% or more (almost completely withered)) | 3 (Herbicidal rate of 40% or more and less than 70%)
COc1ccccc1-c1sc2cc(OC(F)F)ccc2c1-c1c(O)c(C)nn(C)c1=O [3-113] | 4 (Herbicidal rate of 70% or more and less than 90%) | 0 (Herbicidal rate of 5% or less (almost no effect)) | 2 (Herbicidal rate of 20% or more and less than 40%) | 0 (Herbicidal rate of 5% or less (almost no effect)) | 0 (Herbicidal rate of 5% or less (almost no effect)) | 4 (Herbicidal rate of 70% or more and less than 90%) | 5 (Herbicidal rate of 90% or more (almost completely withered)) | 5 (Herbicidal rate of 90% or more (almost completely withered)) | 5 (Herbicidal rate of 90% or more (almost completely withered)) | 5 (Herbicidal rate of 90% or more (almost completely withered)) | 1 (Herbicidal rate of 5% or more and less than 20%) | 5 (Herbicidal rate of 90% or more (almost completely withered)) | 5 (Herbicidal rate of 90% or more (almost completely withered)) | 5 (Herbicidal rate of 90% or more (almost completely withered)) | 5 (Herbicidal rate of 90% or more (almost completely withered)) | 5 (Herbicidal rate of 90% or more (almost completely withered))
